In ChEMBL document CHEMBL6127119 (J Med Chem, 2024):
In brackets after ≈: the same amount, converted by molar mass.

Experiments:
Format in all cases: functional
Conditions in all cases: time 16-24 hrs
Staphylococcus aureus [1] = assay: Antibacterial activity against methicillin-susceptible Staphylococcus aureus incubated for 16 to 24 hrs by CLSI based broth microdilution method
Staphylococcus aureus [2] = assay: Antibacterial activity against vancomycin-intermediate Staphylococcus aureus incubated for 16 to 24 hrs by CLSI based broth microdilution method
Enterococcus faecium [3] = assay: Antibacterial activity against vancomycin-resistant Enterococcus faecium harboring VanA phenotype incubated for 16 to 24 hrs by CLSI based broth microdilution method
Enterococcus faecium [4] = assay: Antibacterial activity against vancomycin-resistant Enterococcus faecium harboring VanM phenotype incubated for 16 to 24 hrs by CLSI based broth microdilution method
Enterococcus faecium [5] = assay: Antibacterial activity against vancomycin-resistant Enterococcus faecium harboring VanB phenotype incubated for 16 to 24 hrs by CLSI based broth microdilution method
Escherichia coli = assay: Antibacterial activity against Escherichia coli AB1157 incubated for 16 to 24 hrs by CLSI based broth microdilution method
Acinetobacter baumannii = assay: Antibacterial activity against Carbapenem-resistant Acinetobacter baumannii clinical isolate incubated for 16 to 24 hrs by CLSI based broth microdilution method
Klebsiella pneumoniae = assay: Antibacterial activity against Klebsiella pneumoniae clinical isolate incubated for 16 to 24 hrs by CLSI based broth microdilution method
Pseudomonas aeruginosa = assay: Antibacterial activity against Pseudomonas aeruginosa PAO1 incubated for 16 to 24 hrs by CLSI based broth microdilution method

Compound | MIC (Staphylococcus aureus [1]) | MIC (Staphylococcus aureus [2]) | MIC (Enterococcus faecium [3]) | MIC (Enterococcus faecium [4]) | MIC (Enterococcus faecium [5]) | MIC (Escherichia coli) | MIC (Acinetobacter baumannii) | MIC (Klebsiella pneumoniae) | MIC (Pseudomonas aeruginosa)
CC(C)C[C@@H](N)C(=O)N[C@H]1C(=O)N[C@@H](CC(N)=O)C(=O)N[C@H]2C(=O)N[C@H]3C(=O)N[C@H](C(=O)N[C@H](C(=O)NCCOCCOCCNC(=N)N)c4cc(O)cc(O)c4-c4cc3ccc4O)[C@H](O)c3ccc(c(Cl)c3)Oc3cc2cc(c3O[C@@H]2O[C@H](CO)[C@@H](O)[C@H](O)[C@H]2O[C@H]2C[C@](C)(N)[C@H](O)[C@H](C)O2)Oc2ccc(cc2Cl)[C@H]1O | 1 µg/mL (≈ 0.622 µM) | 4 µg/mL (≈ 2.49 µM) | 32 µg/mL (≈ 19.9 µM) | 64 µg/mL (≈ 39.8 µM) | 64 µg/mL (≈ 39.8 µM) | 16 µg/mL (≈ 9.95 µM) | > 128 µg/mL | > 128 µg/mL | > 128 µg/mL
CC(C)C[C@@H](N)C(=O)N[C@H]1C(=O)N[C@@H](CC(N)=O)C(=O)N[C@H]2C(=O)N[C@H]3C(=O)N[C@H](C(=O)N[C@H](C(=O)NCc4ccc(-c5ccc(CCN)cc5)cc4)c4cc(O)cc(O)c4-c4cc3ccc4O)[C@H](O)c3ccc(c(Cl)c3)Oc3cc2cc(c3O[C@@H]2O[C@H](CO)[C@@H](O)[C@H](O)[C@H]2O[C@H]2C[C@](C)(N)[C@H](O)[C@H](C)O2)Oc2ccc(cc2Cl)[C@H]1O | 0.25 µg/mL (≈ 0.152 µM) | 1 µg/mL (≈ 0.608 µM) | 4 µg/mL (≈ 2.43 µM) | 16 µg/mL (≈ 9.74 µM) | 8 µg/mL (≈ 4.87 µM) | 16 µg/mL (≈ 9.74 µM) | > 128 µg/mL | > 128 µg/mL | > 128 µg/mL
CC(C)C[C@@H](N)C(=O)N[C@H]1C(=O)N[C@@H](CC(N)=O)C(=O)N[C@H]2C(=O)N[C@H]3C(=O)N[C@H](C(=O)N[C@H](C(=O)NCCCCCCCCN)c4cc(O)cc(O)c4-c4cc3ccc4O)[C@H](O)c3ccc(c(Cl)c3)Oc3cc2cc(c3O[C@@H]2O[C@H](CO)[C@@H](O)[C@H](O)[C@H]2O[C@H]2C[C@](C)(N)[C@H](O)[C@H](C)O2)Oc2ccc(cc2Cl)[C@H]1O | 1 µg/mL (≈ 0.64 µM) | 4 µg/mL (≈ 2.56 µM) | 32 µg/mL (≈ 20.5 µM) | 32 µg/mL (≈ 20.5 µM) | 32 µg/mL (≈ 20.5 µM) | 32 µg/mL (≈ 20.5 µM) | > 128 µg/mL | > 128 µg/mL | 128 µg/mL (≈ 82 µM)
CC(=O)NCCCCNC(=O)[C@H]1NC(=O)[C@H]2NC(=O)[C@H](NC(=O)[C@@H]3NC(=O)[C@H](CC(N)=O)NC(=O)[C@H](NC(=O)[C@H](N)CC(C)C)[C@H](O)c4ccc(c(Cl)c4)Oc4cc3cc(c4O[C@@H]3O[C@H](CO)[C@@H](O)[C@H](O)[C@H]3O[C@H]3C[C@](C)(N)[C@H](O)[C@H](C)O3)Oc3ccc(cc3Cl)[C@H]2O)c2ccc(O)c(c2)-c2c(O)cc(O)cc21 | 4 µg/mL (≈ 2.58 µM) | 8 µg/mL (≈ 5.17 µM) | > 128 µg/mL | 128 µg/mL (≈ 82.7 µM) | > 128 µg/mL | 128 µg/mL (≈ 82.7 µM) | 128 µg/mL (≈ 82.7 µM) | > 128 µg/mL | 128 µg/mL (≈ 82.7 µM)
CC(C)C[C@@H](N)C(=O)N[C@H]1C(=O)N[C@@H](CC(N)=O)C(=O)N[C@H]2C(=O)N[C@H]3C(=O)N[C@H](C(=O)N[C@H](C(=O)O)c4cc(O)c(CNCCCCCCCCNC(=N)N)c(O)c4-c4cc3ccc4O)[C@H](O)c3ccc(c(Cl)c3)Oc3cc2cc(c3O[C@@H]2O[C@H](CO)[C@@H](O)[C@H](O)[C@H]2O[C@H]2C[C@](C)(N)[C@H](O)[C@H](C)O2)Oc2ccc(cc2Cl)[C@H]1O | 1 µg/mL (≈ 0.612 µM) | 4 µg/mL (≈ 2.45 µM) | 64 µg/mL (≈ 39.2 µM) | 32 µg/mL (≈ 19.6 µM) | 128 µg/mL (≈ 78.4 µM) | 32 µg/mL (≈ 19.6 µM) | 128 µg/mL (≈ 78.4 µM) | > 128 µg/mL | 128 µg/mL (≈ 78.4 µM)
CN[C@H](CC(C)C)C(=O)N[C@H]1C(=O)N[C@@H](CC(N)=O)C(=O)N[C@H]2C(=O)N[C@H]3C(=O)N[C@H](C(=O)N[C@H](C(=O)O)c4cc(O)c(CNCCCCCCCCNC(=N)N)c(O)c4-c4cc3ccc4O)[C@H](O)c3ccc(c(Cl)c3)Oc3cc2cc(c3O[C@@H]2O[C@H](CO)[C@@H](O)[C@H](O)[C@H]2O[C@H]2C[C@](C)(N)[C@H](O)[C@H](C)O2)Oc2ccc(cc2Cl)[C@H]1O | 1 µg/mL (≈ 0.607 µM) | 2 µg/mL (≈ 1.21 µM) | 64 µg/mL (≈ 38.8 µM) | 32 µg/mL (≈ 19.4 µM) | 128 µg/mL (≈ 77.7 µM) | 32 µg/mL (≈ 19.4 µM) | 128 µg/mL (≈ 77.7 µM) | > 128 µg/mL | 128 µg/mL (≈ 77.7 µM)
CC(C)C[C@@H](N)C(=O)N[C@H]1C(=O)N[C@@H](CC(N)=O)C(=O)N[C@H]2C(=O)N[C@H]3C(=O)N[C@H](C(=O)N[C@H](C(=O)NCc4ccc(-c5cccc(CN)c5)cc4)c4cc(O)cc(O)c4-c4cc3ccc4O)[C@H](O)c3ccc(c(Cl)c3)Oc3cc2cc(c3O[C@@H]2O[C@H](CO)[C@@H](O)[C@H](O)[C@H]2O[C@H]2C[C@](C)(N)[C@H](O)[C@H](C)O2)Oc2ccc(cc2Cl)[C@H]1O | 0.125 µg/mL (≈ 0.0767 µM) | 0.5 µg/mL (≈ 0.307 µM) | 8 µg/mL (≈ 4.91 µM) | 2 µg/mL (≈ 1.23 µM) | 8 µg/mL (≈ 4.91 µM) | 16 µg/mL (≈ 9.82 µM) | > 128 µg/mL | > 128 µg/mL | 128 µg/mL (≈ 78.6 µM)
